In patent publication US11780893B2, “Kv1.3 blockers” (Zealand Pharma A/S, priority 2019, dated 2023):
pIC50: −log10 of the molar value. Where two headings read alike, the source gives them in different places. Bridge positions count the residues as written; N and C are the ends. Square brackets hold non-standard residues; d marks the D form. Peptide text beside a SMILES is read from it. Nle = CCCC[C@H](N)C(=O)O

Assays:
[1] = target: T1, human Kv1.3 voltage-gated K+ channel (Homo sapiens, UniProt P22001); assay: cell-based; conditions: inhibition of thallium flux, CHO-DUKX cells with human Kv1.3; read-out: IC50
T1 construct: host or cells: CHO-DUKX
T1 sequence (P22001 whole entry): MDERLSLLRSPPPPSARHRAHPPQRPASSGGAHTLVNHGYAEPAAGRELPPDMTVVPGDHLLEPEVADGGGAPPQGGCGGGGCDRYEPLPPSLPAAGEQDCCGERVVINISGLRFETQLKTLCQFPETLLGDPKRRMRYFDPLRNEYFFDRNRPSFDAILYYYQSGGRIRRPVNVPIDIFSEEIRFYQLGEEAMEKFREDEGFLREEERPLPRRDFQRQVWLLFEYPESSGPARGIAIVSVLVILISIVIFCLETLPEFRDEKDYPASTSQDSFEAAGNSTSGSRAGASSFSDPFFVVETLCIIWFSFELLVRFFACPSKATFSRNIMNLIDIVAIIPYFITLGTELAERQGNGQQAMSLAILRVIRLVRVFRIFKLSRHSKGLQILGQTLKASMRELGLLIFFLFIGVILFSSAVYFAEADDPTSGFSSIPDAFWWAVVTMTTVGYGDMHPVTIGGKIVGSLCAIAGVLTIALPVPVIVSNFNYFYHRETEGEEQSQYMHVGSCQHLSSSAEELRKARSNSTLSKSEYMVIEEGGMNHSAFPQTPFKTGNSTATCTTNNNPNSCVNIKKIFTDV

[2] = target: Rat whole blood (Rattus norvegicus, UniProt P15384)
Sequence of Rat whole blood (P15384 whole entry): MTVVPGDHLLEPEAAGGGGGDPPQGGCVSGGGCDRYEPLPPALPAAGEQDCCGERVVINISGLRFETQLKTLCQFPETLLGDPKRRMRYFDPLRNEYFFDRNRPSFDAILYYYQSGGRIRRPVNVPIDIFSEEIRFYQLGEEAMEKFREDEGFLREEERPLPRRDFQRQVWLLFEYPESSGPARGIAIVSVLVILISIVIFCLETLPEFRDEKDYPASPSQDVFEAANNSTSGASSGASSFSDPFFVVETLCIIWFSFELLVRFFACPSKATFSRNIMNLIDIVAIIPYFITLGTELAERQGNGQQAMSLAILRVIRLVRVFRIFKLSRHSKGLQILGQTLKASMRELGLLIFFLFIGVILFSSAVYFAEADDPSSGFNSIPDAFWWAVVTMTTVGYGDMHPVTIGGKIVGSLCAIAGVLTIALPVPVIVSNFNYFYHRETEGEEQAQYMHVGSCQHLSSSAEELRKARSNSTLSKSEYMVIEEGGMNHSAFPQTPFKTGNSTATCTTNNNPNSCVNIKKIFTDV

[3] = inhibition of IL-17A release, thapsigargin, 24 Hr, at least 2 replicates

`CC[C@H](C)[C@@H]1NC(=O)[C@H](C)NC(=O)[C@H](CCCCN)NC(=O)[C@H](CC(C)C)NC(=O)[C@@H]2CSSC[C@@H](C(=O)N[C@@H](Cc3ccc(O)cc3)C(=O)N3CCC[C@H]3C(=O)N[C@@H](CCCNC(=N)N)C(N)=O)NC(=O)[C@H](CCCCN)NC(=O)[C@@H]3CSSC[C@H](NC(=O)[C@H](CCC(=O)O)NC(=O)[C@H](C(C)C)NC(=O)[C@H](CO)NC(=O)[C@H](C)NC(=O)[C@H](CO)NC(=O)[C@@H](NC(=O)[C@H](CCCNC(=N)N)NC(=O)[C@H](CCSC)NC(=O)[C@H](CC(=O)O)NC(=O)[C@H](CCSC)NC(=O)[C@@H](N)CC(N)=O)CSSC[C@H](NC(=O)[C@H](CCCCN)NC(=O)CNC(=O)[C@H](Cc4ccccc4)NC(=O)[C@H]([C@@H](C)CC)NC(=O)[C@H](CO)NC(=O)[C@H](Cc4c[nH]cn4)NC1=O)C(=O)N[C@@H](CCSC)C(=O)N[C@@H](CC(N)=O)C(=O)N[C@@H](CCCCN)C(=O)N[C@@H](CCCCN)C(=O)N3)C(=O)N[C@@H](CCCCN)C(=O)N[C@@H](CCC(N)=O)C(=O)N[C@@H](CCCCN)C(=O)N2` [Compound 33] (H-NMDMRCSASVECKQKCLKAIHSIFGKCMNKKCKCYPR-NH2; disulfide 6-27, 12-32, 16-34) showed a pIC50 [1] of 9.85, a pIC50 [2] of at least 9.00 and a pIC50 [2, 3] of 9.15.
Molecule `CC[C@H](C)[C@@H]1NC(=O)[C@H](C)NC(=O)[C@H](CCCCN)NC(=O)[C@H](CC(C)C)NC(=O)[C@@H]2CSSC[C@@H](C(=O)N[C@@H](Cc3ccc(O)cc3)C(=O)N3CCC[C@H]3C(=O)N[C@@H](CCCNC(=N)N)C(N)=O)NC(=O)[C@H](C(C)C)NC(=O)[C@@H]3CSSC[C@H](NC(=O)[C@H](CCC(=O)O)NC(=O)[C@H](C(C)C)NC(=O)[C@H](CO)NC(=O)[C@H](C)NC(=O)[C@H](CO)NC(=O)[C@@H](NC(=O)[C@H](CCCNC(=N)N)NC(=O)[C@H](CCSC)NC(=O)[C@H](CC(=O)O)NC(=O)[C@H](CCSC)NC(=O)[C@@H](N)CC(N)=O)CSSC[C@H](NC(=O)[C@H](CCCCN)NC(=O)CNC(=O)[C@H](Cc4ccccc4)NC(=O)[C@H]([C@@H](C)CC)NC(=O)[C@H](CO)NC(=O)CNC1=O)C(=O)N[C@@H](CCSC)C(=O)N[C@@H](CC(N)=O)C(=O)N[C@@H](CCCCN)C(=O)N[C@@H](CCCCN)C(=O)N3)C(=O)N[C@@H](CCCCN)C(=O)N[C@@H](CCC(N)=O)C(=O)N[C@@H](CCCCN)C(=O)N2` [Compound 38] (H-NMDMRCSASVECKQKCLKAIGSIFGKCMNKKCVCYPR-NH2; disulfide 6-27, 12-32, 16-34) has a pIC50 [1] of 9.34 and a pIC50 [2, 3] of 8.55.
With `CCCC[C@H](NC(=O)[C@H](CC(=O)O)NC(=O)[C@H](CCCC)NC(=O)[C@@H](N)CO)C(=O)N[C@@H](CCCNC(=N)N)C(=O)N[C@H]1CSSC[C@@H]2NC(=O)[C@H](CCCCN)NC(=O)CNC(=O)[C@H](Cc3ccccc3)NC(=O)[C@H]([C@@H](C)CC)NC(=O)[C@H](CO)NC(=O)CNC(=O)[C@H]([C@@H](C)CC)NC(=O)[C@H](C)NC(=O)[C@H](CCCCN)NC(=O)[C@H](CC(C)C)NC(=O)[C@@H]3CSSC[C@@H](C(=O)N[C@@H](Cc4ccc(O)cc4)C(=O)N4CCC[C@H]4C(=O)N[C@@H](CCCNC(=N)N)C(N)=O)NC(=O)[C@H](CCCNC(=N)N)NC(=O)[C@H](CSSC[C@H](NC(=O)[C@H](CCC(=O)O)NC(=O)[C@H](C(C)C)NC(=O)[C@H](CO)NC(=O)[C@H](C)NC(=O)[C@H](CO)NC1=O)C(=O)N[C@@H](CCCCN)C(=O)N[C@@H](CCC(N)=O)C(=O)N[C@@H](CCCCN)C(=O)N3)NC(=O)[C@H](CCCCN)NC(=O)[C@H](CCCCN)NC(=O)[C@H](CC(N)=O)NC(=O)[C@H](CCSC)NC2=O` [Compound 75] the pIC50 [2] was at least 9.00.
Molecule `CCCC[C@H](NC(=O)[C@@H]1CCCN1)C(=O)N[C@@H](CCC(=O)O)C(=O)N[C@@H](CCCC)C(=O)N[C@@H](CCCNC(=N)N)C(=O)N[C@H]1CSSC[C@@H]2NC(=O)[C@H](CCCCN)NC(=O)CNC(=O)[C@H](Cc3ccccc3)NC(=O)[C@H]([C@@H](C)CC)NC(=O)[C@H](CO)NC(=O)CNC(=O)[C@H]([C@@H](C)CC)NC(=O)[C@H](C)NC(=O)[C@H](C)NC(=O)[C@H](CC(C)C)NC(=O)[C@@H]3CSSC[C@@H](C(=O)N[C@@H](Cc4ccc(O)cc4)C(=O)N4CCC[C@H]4C(=O)N[C@@H](CCCNC(=N)N)C(=O)O)NC(=O)[C@H](CCCCN)NC(=O)[C@H](CSSC[C@H](NC(=O)[C@H](CCC(=O)O)NC(=O)[C@H](C(C)C)NC(=O)[C@H](CO)NC(=O)[C@H](C)NC(=O)[C@H](CO)NC1=O)C(=O)N[C@@H](CCCCN)C(=O)N[C@@H](CCC(N)=O)C(=O)N1CCC[C@H]1C(=O)N3)NC(=O)[C@H](CCCCN)NC(=O)[C@H](CCCCN)NC(=O)[C@H](CC(N)=O)NC(=O)[C@H](CCCC)NC2=O` [Compound 141] (H-P[Nle]E[Nle]RCSASVECKQPCLAAIGSIFGKC[Nle]NKKCKCYPR-OH; disulfide 6-27, 12-32, 16-34) has a pIC50 [1] of 8.97.
`CCCC[C@H](NC(=O)[C@@H]1CCCN1)C(=O)N[C@@H](CCC(=O)O)C(=O)N[C@@H](CCCC)C(=O)N[C@@H](CCCNC(=N)N)C(=O)N[C@H]1CSSC[C@@H]2NC(=O)[C@H](CCCCN)NC(=O)CNC(=O)[C@H](Cc3ccccc3)NC(=O)[C@H]([C@@H](C)CC)NC(=O)[C@H](CO)NC(=O)CNC(=O)[C@H]([C@@H](C)CC)NC(=O)[C@H](C)NC(=O)[C@H](C)NC(=O)[C@H](CC(C)C)NC(=O)[C@@H]3CSSC[C@@H](C(=O)N[C@@H](Cc4ccc(O)cc4)C(=O)N4CCC[C@H]4C(=O)N[C@@H](CCCNC(=N)N)C(=O)O)NC(=O)[C@H](CCCCN)NC(=O)[C@H](CSSC[C@H](NC(=O)[C@H](CCC(=O)O)NC(=O)[C@H](C(C)C)NC(=O)[C@H](CO)NC(=O)[C@H](C)NC(=O)[C@H](CCC(=O)O)NC1=O)C(=O)N[C@@H](CCCCN)C(=O)N[C@@H](CCC(N)=O)C(=O)N[C@@H](CCCCN)C(=O)N3)NC(=O)[C@H](CCCCN)NC(=O)[C@H](CCCCN)NC(=O)[C@H](CC(N)=O)NC(=O)[C@H](CCCC)NC2=O` [Compound 142] (H-P[Nle]E[Nle]RCEASVECKQKCLAAIGSIFGKC[Nle]NKKCKCYPR-OH; disulfide 6-27, 12-32, 16-34) was tested, and the pIC50 [1] was 8.82.
`CCCC[C@H](NC(=O)[C@@H]1CCCN1)C(=O)N[C@@H](CCC(=O)O)C(=O)N[C@@H](CCCC)C(=O)N[C@@H](CCCNC(=N)N)C(=O)N[C@H]1CSSC[C@@H]2NC(=O)[C@H](CCCCN)NC(=O)CNC(=O)[C@H](Cc3ccccc3)NC(=O)[C@H]([C@@H](C)CC)NC(=O)[C@H](CO)NC(=O)CNC(=O)[C@H]([C@@H](C)CC)NC(=O)[C@H](C)NC(=O)[C@H](C)NC(=O)[C@H](CC(C)C)NC(=O)[C@@H]3CSSC[C@@H](C(=O)N[C@@H](Cc4ccc(O)cc4)C(=O)N4CCC[C@H]4C(=O)N[C@@H](CCCNC(=N)N)C(=O)O)NC(=O)[C@H](CCCCN)NC(=O)[C@H](CSSC[C@H](NC(=O)[C@H](CCC(=O)O)NC(=O)[C@H](C(C)C)NC(=O)[C@H](CO)NC(=O)[C@H](C)NC(=O)[C@H](Cc4ccccc4)NC1=O)C(=O)N[C@@H](CCCCN)C(=O)N[C@@H](CCC(N)=O)C(=O)N[C@@H](CCCCN)C(=O)N3)NC(=O)[C@H](CCCCN)NC(=O)[C@H](CCCCN)NC(=O)[C@H](CC(N)=O)NC(=O)[C@H](CCCC)NC2=O` [Compound 143] (H-P[Nle]E[Nle]RCFASVECKQKCLAAIGSIFGKC[Nle]NKKCKCYPR-OH; disulfide 6-27, 12-32, 16-34) gave a pIC50 [1] of 9.50.
In the case of `CCCC[C@H](NC(=O)[C@@H]1CCCN1)C(=O)N[C@@H](CCC(=O)O)C(=O)N[C@@H](CCCC)C(=O)N[C@@H](CCCNC(=N)N)C(=O)N[C@H]1CSSC[C@@H]2NC(=O)[C@H](CCCCN)NC(=O)CNC(=O)[C@H](Cc3ccccc3)NC(=O)[C@H]([C@@H](C)CC)NC(=O)[C@H](CO)NC(=O)CNC(=O)[C@H]([C@@H](C)CC)NC(=O)[C@H](C)NC(=O)[C@H](C)NC(=O)[C@H](CC(C)C)NC(=O)[C@@H]3CSSC[C@@H](C(=O)N[C@@H](Cc4ccc(O)cc4)C(=O)N4CCC[C@H]4C(=O)N[C@@H](CCCNC(=N)N)C(=O)O)NC(=O)[C@H](CCCCN)NC(=O)[C@H](CSSC[C@H](NC(=O)[C@H](CCC(=O)O)NC(=O)[C@H](C(C)C)NC(=O)[C@H](CO)NC(=O)[C@H](Cc4ccc(O)cc4)NC(=O)[C@H](CO)NC1=O)C(=O)N[C@@H](CCCCN)C(=O)N[C@@H](CCC(N)=O)C(=O)N[C@@H](CCCCN)C(=O)N3)NC(=O)[C@H](CCCCN)NC(=O)[C@H](CCCCN)NC(=O)[C@H](CC(N)=O)NC(=O)[C@H](CCCC)NC2=O` [Compound 144] (H-P[Nle]E[Nle]RCSYSVECKQKCLAAIGSIFGKC[Nle]NKKCKCYPR-OH; disulfide 6-27, 12-32, 16-34), the pIC50 [1] was 9.13.
`CCCC[C@H](NC(=O)[C@@H]1CCCN1)C(=O)N[C@@H](CCC(=O)O)C(=O)N[C@@H](CCCC)C(=O)N[C@@H](CCCNC(=N)N)C(=O)N[C@H]1CSSC[C@@H]2NC(=O)[C@H](CCCCN)NC(=O)CNC(=O)[C@H](Cc3ccccc3)NC(=O)[C@H]([C@@H](C)CC)NC(=O)[C@H](CO)NC(=O)CNC(=O)[C@H]([C@@H](C)CC)NC(=O)[C@H](C)NC(=O)[C@H](C)NC(=O)[C@H](CC(C)C)NC(=O)[C@@H]3CSSC[C@@H](C(=O)N[C@@H](Cc4ccc(O)cc4)C(=O)N4CCC[C@H]4C(=O)N[C@@H](CCCNC(=N)N)C(=O)O)NC(=O)[C@H](CCCCN)NC(=O)[C@H](CSSC[C@H](NC(=O)[C@H](CCC(=O)O)NC(=O)[C@H](C(C)C)NC(=O)[C@H](Cc4ccccc4)NC(=O)[C@H](C)NC(=O)[C@H](CO)NC1=O)C(=O)N[C@@H](CCCCN)C(=O)N[C@@H](CCC(N)=O)C(=O)N[C@@H](CCCCN)C(=O)N3)NC(=O)[C@H](CCCCN)NC(=O)[C@H](CCCCN)NC(=O)[C@H](CC(N)=O)NC(=O)[C@H](CCCC)NC2=O` [Compound 145] (H-P[Nle]E[Nle]RCSAFVECKQKCLAAIGSIFGKC[Nle]NKKCKCYPR-OH; disulfide 6-27, 12-32, 16-34) was tested, and the pIC50 [1] was 8.08.
Molecule “H-NMDMRCSASVECKQKCLKAIGSIFGKCMNKKCKCYPRHRRK-NH2 (disulfide 6-27, 12-32, 16-34) [Compound 24]” has a pIC50 [1] of 10.14.
